Measured values taken from US8598145B2, “Mitochondrially delivered anti-cancer compounds” (priority 2008, dated 2013).

Legend:
breast carcinomas = test: Spontaneous ductal breast carcinomas in transgenic mice (FIG. 9); assay type: in vivo, FVB/N c-neu mice
Protocol: The transgenic FVB/N c-neu female mice with spontaneous small breast carcinomas were treated with MitoVES at 3 μmol per mouse per dose and the tumour volume was assessed by repeated ultrasound imaging, monitoring tumour growth over several weeks.
For this purpose, the transgenic FVB/N c-neu mice that form spontaneous ductal breast carcinomas due to high level of expression of the oncogene, HER2 were used as a cancer model.

T lymphoma cells = conditions: medium pH ~6.2 compared to pH 7.2; cited from earlier work
MS cells = test: ROS production by flow cytometry, mammosphere cells (FIG. 8); assay type: cell-based, human; conditions: 3 h; α-TOS 50 μM, MitoVES homologues 5 μM
Protocol: Adherent MCF7 cells and the corresponding mammosphere cells (MS) were cultured and assessed for morphological changes by microscopy (A) and for expression levels of markers as indicators of “sternness” by RT-PCR (B) and flow cytometry (C), including the expression of CD44 and CD24 (D). The adherent MCF7 cells (E) and the MS cells (F) were treated with 5 μM MitoVES, 50 μM α-TOS or 10 μM parthenolide and assessed for their sensitivity to drug induced cell death. […] Adherent MCF7 cells (I) and MS cells (J) were treated for 3 h with α-TOS (50 μM) or MitoVES homologues containing different lengths in the aliphatic side chain (5 μM each, either 11, 7 or 5 carbon chain in length) and the treated cells assessed for production of reactive oxygen species (ROS) by flow cytometry.
Cellular ROS were detected indirectly by flow cytometry and directly by electron paramagnetic resonance (EPR) spectroscopy, following treatment of cells with α-TOS as indicated in the Legend to Figures. […] For indirect evaluation, cells were treated with α-TOS and reacted with dihydrodichlorofluorescein diacetate (DCF; Molecular Probes) for 30 min, and scored by flow cytometry for cells with high fluorescence, which was evaluated on the bases on increase in mean fluorescence intensity. […]

Row | Compound | progression of breast cancer tumours (breast carcinomas; 3 μmol per mouse per dose, tumour volume by ultrasound imaging) | toxicity in treated animals (breast carcinomas; FVB/N c-neu mice) | fold lower concentrations than needed for corresponding activity of α-TOS (breast carcinomas; relative to α-TOS) [fold] | greater apoptogenic efficacy at acidic pH (T lymphoma cells) [times] | ROS production in MS cells (MS cells)
1 | Cc1c(C)c2c(c(C)c1OC(=O)CCC(=O)[O-])CCC(C)(CCCCCCCCCCC[P+](c1ccccc1)(c1ccccc1)c1ccccc1)O2 (centres unmarked) [MitoVE11S] | completely blocked progression | no obvious sign of toxicity | ~10 |  | 
2 | Cc1c(C)c2c(c(C)c1OC(=O)CCC(=O)O)CC[C@@](C)(CCC[C@H](C)CCC[C@H](C)CCCC(C)C)O2 [α-TOS, α-tocopheryl succinate, reference compound] |  |  |  | ~3 | much lower levels
